Reference: article PMC6704710, “Preclinical evaluation of 3D185, a novel potent inhibitor of FGFR1/2/3 and CSF-1R, in FGFR-dependent and macrophage-dominant cancer models” (Journal of Experimental & Clinical Cancer Research : CR, 2019)

Key:
Assay in all cases: Eurofins kinase panel
Assay type in all cases: biochemical
Details in all cases: read-out: Inhibition rate (%)
Arg(h) = biological target: T1, Arg(h) (Homo sapiens, UniProt P42684)
T1 construct: purchased Eurofins (KinaseProfiler)

Fyn(h) = biological target: T2, Fyn(h) (Homo sapiens, UniProt P06241)
T2 construct: purchased Eurofins (KinaseProfiler)
T2 sequence (P06241 whole entry): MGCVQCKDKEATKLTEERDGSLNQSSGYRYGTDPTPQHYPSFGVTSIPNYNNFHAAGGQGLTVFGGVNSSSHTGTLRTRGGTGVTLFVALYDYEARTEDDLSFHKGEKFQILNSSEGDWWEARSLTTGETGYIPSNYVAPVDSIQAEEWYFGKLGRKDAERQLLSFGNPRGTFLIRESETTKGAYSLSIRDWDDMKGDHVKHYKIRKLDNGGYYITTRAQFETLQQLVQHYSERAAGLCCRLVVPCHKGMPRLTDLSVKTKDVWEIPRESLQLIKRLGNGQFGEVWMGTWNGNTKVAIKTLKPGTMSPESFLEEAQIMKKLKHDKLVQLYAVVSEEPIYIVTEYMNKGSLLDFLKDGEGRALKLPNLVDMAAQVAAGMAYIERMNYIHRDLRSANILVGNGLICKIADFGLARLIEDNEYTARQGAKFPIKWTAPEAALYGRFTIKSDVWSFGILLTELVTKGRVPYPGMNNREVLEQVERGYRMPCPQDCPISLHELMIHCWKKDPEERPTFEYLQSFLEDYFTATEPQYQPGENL

PEK(h) = biological target: T3, PEK(h) (Homo sapiens, UniProt Q9NZJ5)
T3 construct: purchased Eurofins (KinaseProfiler)
T3 sequence (Q9NZJ5 30-1116): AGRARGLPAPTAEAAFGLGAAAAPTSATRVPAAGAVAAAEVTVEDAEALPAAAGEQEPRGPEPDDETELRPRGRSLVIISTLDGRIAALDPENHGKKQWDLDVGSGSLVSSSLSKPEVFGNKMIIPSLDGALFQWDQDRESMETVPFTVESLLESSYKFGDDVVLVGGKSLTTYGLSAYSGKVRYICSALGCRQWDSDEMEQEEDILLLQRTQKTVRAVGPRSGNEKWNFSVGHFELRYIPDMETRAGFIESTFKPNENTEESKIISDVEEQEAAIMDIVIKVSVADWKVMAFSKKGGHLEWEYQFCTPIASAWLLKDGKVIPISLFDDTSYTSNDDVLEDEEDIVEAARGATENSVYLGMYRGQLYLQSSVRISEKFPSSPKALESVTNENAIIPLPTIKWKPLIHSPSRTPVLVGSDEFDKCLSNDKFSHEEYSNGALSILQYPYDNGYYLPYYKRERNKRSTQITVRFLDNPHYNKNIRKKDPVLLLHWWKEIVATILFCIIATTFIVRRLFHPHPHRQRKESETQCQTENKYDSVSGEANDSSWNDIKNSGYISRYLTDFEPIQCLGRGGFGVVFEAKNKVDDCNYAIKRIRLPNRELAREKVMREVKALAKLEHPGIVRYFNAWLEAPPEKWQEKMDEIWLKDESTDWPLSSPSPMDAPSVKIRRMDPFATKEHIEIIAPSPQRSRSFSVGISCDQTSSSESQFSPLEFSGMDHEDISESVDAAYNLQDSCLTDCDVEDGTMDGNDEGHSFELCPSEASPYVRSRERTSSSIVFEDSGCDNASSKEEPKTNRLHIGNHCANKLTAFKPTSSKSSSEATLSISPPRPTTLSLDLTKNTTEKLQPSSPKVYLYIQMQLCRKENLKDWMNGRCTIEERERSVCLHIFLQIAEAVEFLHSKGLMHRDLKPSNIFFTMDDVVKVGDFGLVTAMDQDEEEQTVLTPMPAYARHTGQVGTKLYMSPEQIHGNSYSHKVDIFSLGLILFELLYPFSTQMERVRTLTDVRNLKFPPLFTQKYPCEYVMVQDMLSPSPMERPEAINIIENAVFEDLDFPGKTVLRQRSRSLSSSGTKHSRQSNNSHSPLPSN

Syk(h) = biological target: T4, Syk(h) (Homo sapiens, UniProt P43405)
T4 construct: purchased Eurofins (KinaseProfiler)

TBK1(h) = biological target: T5, TBK1(h) (Homo sapiens, UniProt Q9UHD2)
T5 construct: purchased Eurofins (KinaseProfiler)
T5 sequence (Q9UHD2 1-729): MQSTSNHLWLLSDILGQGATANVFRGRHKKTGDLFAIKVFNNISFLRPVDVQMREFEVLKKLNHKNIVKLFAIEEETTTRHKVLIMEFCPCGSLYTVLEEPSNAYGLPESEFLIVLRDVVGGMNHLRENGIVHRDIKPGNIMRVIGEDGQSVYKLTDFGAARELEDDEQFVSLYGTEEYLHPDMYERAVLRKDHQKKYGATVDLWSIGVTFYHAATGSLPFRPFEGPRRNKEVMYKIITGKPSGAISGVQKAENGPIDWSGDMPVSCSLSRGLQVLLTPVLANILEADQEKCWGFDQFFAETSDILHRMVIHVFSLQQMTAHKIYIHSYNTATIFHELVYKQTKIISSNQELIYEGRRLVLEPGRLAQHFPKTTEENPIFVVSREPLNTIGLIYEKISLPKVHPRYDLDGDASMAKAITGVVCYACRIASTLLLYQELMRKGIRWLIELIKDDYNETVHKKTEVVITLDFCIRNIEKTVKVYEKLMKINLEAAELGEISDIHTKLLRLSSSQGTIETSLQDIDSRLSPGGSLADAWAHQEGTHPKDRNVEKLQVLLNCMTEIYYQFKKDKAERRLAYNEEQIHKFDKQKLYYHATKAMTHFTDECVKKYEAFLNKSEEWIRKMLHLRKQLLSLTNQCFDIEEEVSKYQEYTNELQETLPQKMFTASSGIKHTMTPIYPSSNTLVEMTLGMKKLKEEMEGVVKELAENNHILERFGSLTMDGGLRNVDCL

T1 sequence (P42684 whole entry): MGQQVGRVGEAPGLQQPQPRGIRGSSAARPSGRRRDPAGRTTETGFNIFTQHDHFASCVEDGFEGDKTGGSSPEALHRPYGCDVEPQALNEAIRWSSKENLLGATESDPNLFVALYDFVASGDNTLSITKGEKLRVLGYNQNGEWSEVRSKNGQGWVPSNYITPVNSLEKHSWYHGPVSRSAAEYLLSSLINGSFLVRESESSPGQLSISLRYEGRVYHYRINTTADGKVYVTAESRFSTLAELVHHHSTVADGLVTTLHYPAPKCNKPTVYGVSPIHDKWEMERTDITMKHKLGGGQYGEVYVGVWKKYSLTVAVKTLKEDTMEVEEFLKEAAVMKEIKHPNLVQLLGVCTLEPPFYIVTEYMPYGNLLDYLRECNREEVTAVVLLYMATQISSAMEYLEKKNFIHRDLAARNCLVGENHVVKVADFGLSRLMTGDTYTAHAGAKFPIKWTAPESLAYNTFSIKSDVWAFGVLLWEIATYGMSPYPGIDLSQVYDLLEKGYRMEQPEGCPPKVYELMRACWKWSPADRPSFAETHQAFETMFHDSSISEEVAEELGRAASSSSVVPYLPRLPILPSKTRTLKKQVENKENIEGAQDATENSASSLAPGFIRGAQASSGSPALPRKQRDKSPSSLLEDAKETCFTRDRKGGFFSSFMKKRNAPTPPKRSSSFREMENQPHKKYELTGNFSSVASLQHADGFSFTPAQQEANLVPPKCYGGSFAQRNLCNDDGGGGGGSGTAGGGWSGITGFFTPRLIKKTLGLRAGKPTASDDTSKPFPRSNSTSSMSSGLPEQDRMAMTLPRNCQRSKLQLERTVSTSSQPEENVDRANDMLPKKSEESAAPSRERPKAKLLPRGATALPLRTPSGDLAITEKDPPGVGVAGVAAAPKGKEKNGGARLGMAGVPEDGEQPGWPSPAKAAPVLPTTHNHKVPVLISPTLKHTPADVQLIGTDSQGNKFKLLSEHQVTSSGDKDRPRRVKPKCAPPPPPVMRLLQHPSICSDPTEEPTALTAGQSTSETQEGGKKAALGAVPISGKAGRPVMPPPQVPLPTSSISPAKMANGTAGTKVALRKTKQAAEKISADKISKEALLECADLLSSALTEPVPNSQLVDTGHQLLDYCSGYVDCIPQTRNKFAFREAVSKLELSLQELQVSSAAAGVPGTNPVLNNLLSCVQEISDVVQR

SMILES: COc1cc(OC)c(Cl)c(-c2ccc3c(NC(=O)c4ccc(N5CCNC(C)(C)C5)cc4)n[nH]c3n2)c1Cl [3D185]
- inhibition at 0.01 µM (Arg(h); 10 nM): 2%
- inhibition at 0.1 µM (Arg(h); 100 nM): 36%
- inhibition at 1 µM (Arg(h); 1000 nM): 87%
- inhibition at 0.01 µM (Fyn(h); 10 nM): 8%
- inhibition at 0.1 µM (Fyn(h); 100 nM): 27%
- inhibition at 1 µM (Fyn(h); 1000 nM): 80%
- inhibition at 0.01 µM (PEK(h); 10 nM): -7%
- inhibition at 0.1 µM (PEK(h); 100 nM): 6%
- inhibition at 1 µM (PEK(h); 1000 nM): 55%
- inhibition at 0.01 µM (Syk(h); 10 nM): -3%
- inhibition at 0.1 µM (Syk(h); 100 nM): -5%
- inhibition at 1 µM (Syk(h); 1000 nM): 20%
- inhibition at 0.01 µM (TBK1(h); 10 nM): -6%
- inhibition at 0.1 µM (TBK1(h); 100 nM): -2%
- inhibition at 1 µM (TBK1(h); 1000 nM): -1%
